According to EPA's ToxRefDB 2:

What was measured:
mouse [1] = settings: Carcinogenicity, other, Oral, Feed, dose end: 92 week, group: systemic
rat [2] = settings: Combined chronic toxicity/carcinogenicity, wistar, Oral, Feed, dose end: 104 week, group: systemic
rabbit = settings: Prenatal developmental toxicity study, new zealand white, Oral, Gavage/Intubation, dose end: 19 GD, group: maternal
rat [3] = settings: Prenatal developmental toxicity study, sprague dawley, Oral, Gavage/Intubation, dose end: 16 GD
dog [4] = settings: Chronic toxicity; beagle; Oral; Feed; dose end: 12 month; group: systemic; systemic / clinical chemistry / sodium / sodium + systemic / in life observation / body weight / body weight + systemic / in life …
rat [5] = settings: Combined chronic toxicity/carcinogenicity; sprague dawley; Oral; Feed; dose end: 24 month; group: systemic; systemic / clinical chemistry / sodium / sodium
dog [6] = settings: Chronic toxicity, beagle, Oral, Capsule, dose end: 52 week, group: systemic
rat [7] = settings: Subchronic oral toxicity in rodents, fischer, Feed, dose end: 13 week, group: systemic, systemic / organ weight / adrenal gland / nos + systemic / organ weight / kidney / nos + systemic / organ weight / liver / nos + systemic / …
rat [8] = settings: Multigenerational reproductive toxicity study, Other, Oral, Feed, dose end: 2 generation
mouse [9] = settings: Subchronic oral toxicity in rodents, cd1, Feed, dose end: 13 week, group: systemic
dog [10] = settings: Subchronic oral toxicity in nonrodent, beagle, Capsule, dose end: 13 week, group: systemic
mouse [11] = settings: Carcinogenicity, cd1, Oral, Feed, dose end: 18 month, group: systemic
mouse [12] = settings: Subchronic oral toxicity in rodents, b6c3f1, Water, dose end: 30 day, group: systemic
rat [13] = settings: Carcinogenicity, other, Oral, Feed, dose end: 80 week, group: systemic
rat [14] = settings: Subchronic oral toxicity in rodents, other, Feed, dose end: 6 week, group: systemic
mouse [15] = settings: Multigenerational reproductive toxicity study; other; Oral; Feed; dose end: 1 generation; group: reproductive; reproductive / offspring survival early / litter size / litter size
rat [16] = settings: Developmental neurotoxicity study; Oral; Feed; dose end: 90 PND; group: cannot be grouped; systemic / organ weight / liver / relative to body weight + systemic / pathology microscopic / liver / vacuolization
rat [17] = settings: Subchronic oral toxicity in rodents, fischer, Feed, dose end: 8 week, group: systemic
mouse [18] = settings: Subchronic oral toxicity in rodents, b6c3f1, Feed, dose end: 6 week, group: systemic, systemic / in life observation / mortality / mortality
rat [19] = settings: Carcinogenicity; fischer; Oral; Feed; dose end: 105 week; group: systemic; systemic / in life observation / clinical signs / convulsions + systemic / in life observation / clinical signs / nervousness + systemic / …
mouse [20] = settings: Carcinogenicity, b6c3f1, Oral, Feed, dose end: 80 week, group: systemic
rat [21] = settings: Combined chronic toxicity/carcinogenicity; fischer; Oral; Water; dose end: 21 month; group: systemic; systemic / pathology microscopic / heart / thrombus + systemic / pathology microscopic / liver / degeneration + systemic / pathology …
rat [22] = settings: Subchronic oral toxicity in rodents, fischer, Water, dose end: 13 week, group: systemic
rat [23] = settings: Subchronic oral toxicity in rodents, fischer, Water, dose end: 13 week, group: systemic; remark: listed apart in the source
[24] = systemic / pathology microscopic / liver / depletion glycogen
[25] = systemic / pathology microscopic / liver / depletion glycogen + systemic / pathology microscopic / lung / adenocarcinoma + systemic / …
[26] = systemic / pathology microscopic / liver / hypertrophy + systemic / pathology microscopic / thyroid gland / [other]
[27] = systemic / pathology microscopic / liver / hypertrophy + systemic / pathology microscopic / thyroid gland / [other] + systemic / in life …
[28] = systemic / organ weight / liver / relative to body weight
[29] = systemic / organ weight / liver / relative to body weight + reproductive / reproductive performance / aborted / aborted + reproductive / …
[30] = group: developmental, developmental / developmental malformation / bone / incomplete ossification + systemic / in life observation / body weight / fetal weight + …
[31] = group: maternal, systemic / in life observation / body weight / body weight + systemic / in life observation / body weight / body weight gain + systemic / in…
[32] = systemic / pathology microscopic / liver / pigmentation + systemic / clinical chemistry / alkaline phosphatase (alp/alk) / alkaline …
[33] = group: offspring, systemic / in life observation / body weight / offspring (pup) weight + systemic / pathology gross / liver / discolored + systemic / …
[34] = group: parental, systemic / organ weight / liver / relative to body weight
[35] = group: parental, systemic / organ weight / liver / relative to body weight + systemic / in life observation / body weight / body weight + systemic / in life …
[36] = systemic / pathology microscopic / liver / hypertrophy
[37] = systemic / pathology microscopic / liver / hypertrophy + systemic / clinical chemistry / alanine aminotransferase (alt/sgpt) / alanine …
[38] = systemic / clinical chemistry / alkaline phosphatase (alp/alk) / alkaline phosphatase (alp/alk) + systemic / pathology gross / liver / …
[39] = systemic / organ weight / prostate / relative to body weight
[40] = systemic / organ weight / liver / relative to body weight + systemic / organ weight / liver / absolute
[41] = systemic / clinical chemistry / triglycerides / triglycerides
[42] = systemic / organ weight / kidney / absolute + systemic / organ weight / kidney / relative to body weight + systemic / organ weight / liver…
[43] = systemic / in life observation / body weight / body weight + systemic / in life observation / clinical signs / [other] + systemic / in life …
[44] = systemic / in life observation / body weight / body weight
[45] = systemic / in life observation / body weight / body weight + systemic / in life observation / mortality / mortality
[46] = systemic / pathology microscopic / brain / necrosis + systemic / in life observation / body weight / body weight + systemic / in life …
[47] = systemic / in life observation / clinical signs / excitation + systemic / in life observation / clinical signs / tremors
[48] = systemic / in life observation / clinical signs / excitation + systemic / in life observation / clinical signs / tremors + systemic / in …
[49] = systemic / clinical chemistry / creatinine / creatinine + systemic / clinical chemistry / thyroxine (t4) / thyroxine (t4), total + systemic…
[50] = systemic / in life observation / body weight / body weight + systemic / pathology microscopic / kidney / nephropathy + systemic / pathology …
[51] = systemic / in life observation / body weight / body weight gain + systemic / organ weight / kidney / relative to body weight + systemic / …

## CC1(C)[C@H](C(=O)OCc2cccc(Oc3ccccc3)c2)[C@@H]1C=C(Cl)Cl [1RS cis-Permethrin]
Mouse [1]; [24]
  LEL: 10 mg/kg/day
  NEL: < 10 mg/kg/day
Mouse [1]; [25]
  LOAEL: > 250 mg/kg/day
  NOAEL: ≥ 250 mg/kg/day
Rat [2]; [26]
  LEL: 50 mg/kg/day
  LOAEL: 50 mg/kg/day
Rat [2]; [27]
  NEL: 10 mg/kg/day
  NOAEL: 10 mg/kg/day

## CCOc1nc(NC)nc(NC(=O)NS(=O)(=O)c2ccccc2C(=O)OC)n1 [Ethametsulfuron-methyl]
rabbit; [28]
  LEL: 1000 mg/kg/day
  LOAEL: 1000 mg/kg/day
rabbit; [29]
  NEL: 250 mg/kg/day
  NOAEL: 250 mg/kg/day
Rat [3]; [30]
  LEL: 4000 mg/kg/day
  LOAEL: 4000 mg/kg/day
  NEL: 1000 mg/kg/day
  NOAEL: 1000 mg/kg/day
Rat [3]; [31]
  LEL: 4000 mg/kg/day
  LOAEL: 4000 mg/kg/day
  NEL: 1000 mg/kg/day
  NOAEL: 1000 mg/kg/day
Dog [4]
  LEL: 478 mg/kg/day
  LOAEL: 478 mg/kg/day
  NEL: 87.3 mg/kg/day
  NOAEL: 87.3 mg/kg/day
Rat [5]
  LEL: 210 mg/kg/day
  LOAEL: > 210 mg/kg/day
  NEL: 21 mg/kg/day
  NOAEL: ≥ 210 mg/kg/day

## CSC(=O)c1c(C(F)F)nc(C(F)(F)F)c(C(=O)SC)c1CC(C)C [Dithiopyr]
Dog [6]; systemic / pathology microscopic / liver / pigmentation
  LOAEL: 5 mg/kg/day
Dog [6]; [32]
  LEL: 5 mg/kg/day
  NEL: 0.5 mg/kg/day
  NOAEL: 0.5 mg/kg/day
Rat [7]
  LEL: 6.62 mg/kg/day
  LOAEL: 6.62 mg/kg/day
  NEL: 0.662 mg/kg/day
  NOAEL: 0.662 mg/kg/day
Rat [8]; [33]
  LEL: 19.9 mg/kg/day
  LOAEL: > 218 mg/kg/day
  NEL: 2 mg/kg/day
  NOAEL: ≥ 218 mg/kg/day
Rat [8]; [34]
  LEL: 16.4 mg/kg/day
  LOAEL: 16.4 mg/kg/day
Rat [8]; [35]
  NEL: 1.7 mg/kg/day
  NOAEL: 1.7 mg/kg/day
Mouse [9]; [36]
  LEL: 11.8 mg/kg/day
  LOAEL: 11.8 mg/kg/day
Mouse [9]; [37]
  NEL: 1.16 mg/kg/day
  NOAEL: 1.16 mg/kg/day
Dog [10]; [38]
  LOAEL: 10 mg/kg/day
  NOAEL: 1 mg/kg/day
Dog [10]; [39]
  LEL: 1 mg/kg/day
  NEL: < 1 mg/kg/day
Mouse [11]; [28]
  LEL: 3.27 mg/kg/day
  LOAEL: 3.27 mg/kg/day
Mouse [11]; [40]
  NEL: 0.31 mg/kg/day
  NOAEL: 0.31 mg/kg/day

## O=[As]([O-])([O-])[O-].[Na+].[Na+].[Na+] [Trisodium arsenate]
Mouse [12]; [41]
  LEL: 0.00625 mg/kg/day
  NEL: < 0.00625 mg/kg/day
Mouse [12]; [42]
  LOAEL: 0.625 mg/kg/day
  NOAEL: 0.00625 mg/kg/day

## ClC1=C(Cl)[C@]2(Cl)[C@@H]3[C@@H]4C[C@@H]([C@H]5O[C@@H]45)[C@@H]3[C@@]1(Cl)C2(Cl)Cl [Dieldrin]
Rat [13]; [43]
  LEL: 1.45 mg/kg/day
  NEL: < 1.45 mg/kg/day
Rat [13]; systemic / in life observation / clinical signs / convulsions
  LOAEL: 3.25 mg/kg/day
Rat [13]; systemic / in life observation / clinical signs / convulsions + systemic / in life observation / body weight / body weight + systemic / in …
  NOAEL: 1.45 mg/kg/day
Rat [14]; [44]
  LEL: 2 mg/kg/day
  NEL: < 2 mg/kg/day
Rat [14]; [45]
  LOAEL: > 16 mg/kg/day
  NOAEL: ≥ 16 mg/kg/day
Mouse [15]
  LEL: 0.75 mg/kg/day
  LOAEL: > 0.75 mg/kg/day
  NEL: < 0.75 mg/kg/day
  NOAEL: ≥ 0.75 mg/kg/day
Rat [16]
  LEL: 0.00035 mg/kg/day
  LOAEL: > 0.00035 mg/kg/day
  NEL: < 0.00035 mg/kg/day
  NOAEL: ≥ 0.00035 mg/kg/day
Rat [17]; systemic / pathology microscopic / brain / necrosis
  LOAEL: 5 mg/kg/day
Rat [17]; systemic / pathology microscopic / brain / necrosis + systemic / in life observation / body weight / body weight
  LEL: 5 mg/kg/day
Rat [17]; [46]
  NEL: 2.5 mg/kg/day
  NOAEL: 2.5 mg/kg/day
Mouse [18]
  LEL: 3 mg/kg/day
  LOAEL: > 6 mg/kg/day
  NEL: 1.5 mg/kg/day
  NOAEL: ≥ 6 mg/kg/day
Rat [19]
  LEL: 2.5 mg/kg/day
  LOAEL: > 2.5 mg/kg/day
  NEL: 0.5 mg/kg/day
  NOAEL: ≥ 2.5 mg/kg/day
Mouse [20]; [47]
  LOAEL: 0.375 mg/kg/day
  NOAEL: < 0.375 mg/kg/day
Mouse [20]; [48]
  LEL: 0.375 mg/kg/day
  NEL: < 0.375 mg/kg/day

## COc1cc(-c2ccc(N)c(OC)c2)ccc1N.Cl.Cl [3,3'-Dimethoxybenzidine dihydrochloride]
Rat [21]
  LEL: 6 mg/kg/day
  LOAEL: 6 mg/kg/day
  NEL: < 6 mg/kg/day
  NOAEL: < 6 mg/kg/day
Rat [22]; [49]
  LEL: 11 mg/kg/day
  NEL: < 11 mg/kg/day
Rat [22]; [50]
  LOAEL: 109 mg/kg/day
  NOAEL: 56 mg/kg/day
Rat [23]; [51]
  LOAEL: > 120 mg/kg/day
  NOAEL: ≥ 120 mg/kg/day
Rat [23]; [28]
  LEL: 13 mg/kg/day
  NEL: < 13 mg/kg/day
